Source: US20130331266A1, “METHOD FOR CONTROLLING WEEDS IN PADDY RICE CULTIVATION” (SUMITOMO CHEMICAL COMPANY, LIMITED, priority 2011, published 2013)

How the values were obtained:
Type in all cases: in vivo
[1] = tested on: Echinochloa oryzicola; assay: Pot test Example 1: herbicidal effect on Echinochloa oryzicola, spray on drained soil then flooding; conditions: score 0-100, 30 g/ha, 4th leaf stage, evaluated 4 weeks after application
Procedure: (§1) In Examples of the method of the present invention, a criterion for evaluating a herbicidal effect is as follows.
(§2) A 1/5000-are Wagner pot was filled with a paddy field soil, and then water was added thereto followed by soil puddling. After draining, a pre-germinated Echinochloa oryzicola was sown, and then grown in a glasshouse. Fourteen (14) days after the sowing when Echinochloa oryzicola had the 4th leaves, a water-diluted solution (134 ppm of Compound 1) of a flowable containing 10% Compound 1 was applied by spraying on the surface of the pot with a sprayer so that the amount of Compound 1 as listed in Table 1 was applied. When applying the water-diluted solution, the soil was well drained. The pot was flooded with water to a depth of 5 cm on the day of the application of the herbicide, the next day of the application of the herbicide, or 3 days after the application of the herbicide. And then, the plant was grown in the glasshouse. Four (4) weeks after the application of the herbicide, the herbicidal effect on Echinochloa oryzicola was evaluated.

[2] = tested on: Echinochloa oryzicola; assay: Pot test Example 2: herbicidal effect on Echinochloa oryzicola, spray on drained soil then flooding; conditions: score 0-100, 25 g/ha, 4th leaf stage, evaluated 4 weeks after application
Procedure: as §1
as §2, with “A 1/10000-are” for “A 1/5000-are Wagner”, “glasshouse. Sixteen (16)” for “glasshouse. Fourteen (14)”, “solution (112” for “solution (134”, “1)” for “1) of”, “Table 2” for “Table 1”, “applying with” for “applying”

[3] = tested on: Leptochloa chinenisis; assay: Pot test Example 5: herbicidal effect on Leptochloa chinenisis, spray at 0.5 cm water then flooding; conditions: score 0-100, 100 g/ha, second or third leaf stage, evaluated 2 weeks after application
Procedure: as §1
A 1/10000-are Wagner pot was filled with a paddy field soil, and then water was added thereto followed by soil puddling. After draining, a pre-germinated Leptochloa chinenisis was sown, and then grown in a glasshouse. Sixteen (16) days after the sowing when Leptochloa chinenisis had the second or third leaves, each water-diluted solution containing 50 ppm of Compound 1, Compound 2, or Compound 3 was applied by spraying on the surface of the pot with a sprayer so that each amount of Compound 1, Compound 2, and Compound 3 as listed in Table 4 was applied. When applying the water-diluted solution, the pot was flooded to a depth of 0.5 cm. The pot was flooded with water to a depth of 4 cm or 2 cm on the next day of the application of the herbicide or 5 days after the application of the herbicide. And then, the plant was grown in the glasshouse.
Two (2) weeks after the application of the herbicide, the herbicidal effect on Leptochloa chinenisis was evaluated.

[4] = tested on: Echinochloa oryzicola; assay: Pot test Example 3: herbicidal effect on Echinochloa oryzicola, spray on drained soil then flooding; conditions: score 0-100, 25 g/ha, 4th leaf stage, evaluated 2 weeks after application
Procedure: as §1
A 1/10000-are pot was filled with a paddy field soil, and then water was added thereto followed by soil puddling. After draining, a pre-germinated Echinochloa oryzicola was sown, and then grown in a glasshouse. Sixteen (16) days after the sowing when Echinochloa oryzicola had the 4th leaves, each water-diluted solution containing 112 ppm of Compound 2 or Compound 3 was applied by spraying on the surface of the pot with a sprayer so that each amount of Compound 2 and Compound 3 as listed in Table 3 was applied. Each water-diluted solution of Compound 2 and Compound 3 was prepared by dissolving a given amount of Compound 2 or Compound 3 in acetone containing 2% (w/v) of Tween 20, followed by diluting the resulting solution with water so that the concentration of acetone was 10% by volume. When applying the water-diluted solution, the soil was well drained. The pot was flooded with water to a depth of 5 cm on the day of the application of the herbicide, the next day of the application of the herbicide, 3 days after the application of the herbicide, or 7 days after the application of the herbicide. And then, the plant was grown in the glasshouse.
Two (2) weeks after the application of the herbicide, the herbicidal effect on Echinochloa oryzicola was evaluated.

[5] = flooded to 5 cm 3 days after treatment
[6] = flooded to 5 cm on day of treatment
[7] = flooded to 5 cm on next day of treatment
[8] = flooded 5 days after treatment, depth 4 cm
[9] = flooded next day of treatment, depth 2 cm
[10] = flooded next day of treatment, depth 4 cm
[11] = flooded to 5 cm 7 days after treatment

Structure (SMILES)	Herbicidal effect on Echinochloa oryzicola [1, 5]	Herbicidal effect on Echinochloa oryzicola [1, 6]	Herbicidal effect on Echinochloa oryzicola [1, 7]	Herbicidal effect on Echinochloa oryzicola [2, 5]	Herbicidal effect on Echinochloa oryzicola [2, 6]	Herbicidal effect on Echinochloa oryzicola [2, 7]	Herbicidal effect on Leptochloa chinenisis [3, 8]	Herbicidal effect on Leptochloa chinenisis [3, 9]	Herbicidal effect on Leptochloa chinenisis [3, 10]	Herbicidal effect on Echinochloa oryzicola [4, 5]	Herbicidal effect on Echinochloa oryzicola [4, 11]	Herbicidal effect on Echinochloa oryzicola [4, 6]	Herbicidal effect on Echinochloa oryzicola [4, 7]
CCCc1ccc2nc(Cl)c(S(=O)(=O)NC(=O)Nc3nc(OC)cc(OC)n3)n2n1 [Compound 1, 1-(2-Chloro-6-propylimidazo[1,2-b]pyridazin-3-ylsulfonyl)-3-(4,6-dimethoxypyrimidin-2-yl)urea]	90	96	97	85	88	93	75	75	90				
COCc1cccc(C(O)c2nc(OC)cc(OC)n2)c1NS(=O)(=O)C(F)F (racemic) [Compound 2, (RS)-2′-[(4,6-Dimethoxypyrimidin-2-yl)(hydroxy)methyl]-1,1-difluoro-6′-(methoxymethyl)methanesulfonanilide]							80	80	90	90	80	89	92
COc1cc(OC)nc(NC(=O)NS(=O)(=O)c2c(C3=NOCC(C)O3)c(Cl)nn2C)n1 (racemic) [Compound 3, 1-{3-Chloro-1-methyl-4-[(5RS)-5,6-dihydro-5-methyl-1,4,2-dioxazin-3-yl]pyrazol-5-ylsulfonyl}-3-(4,6-dimethoxypyrimidin-2-yl)urea]							60		90	75	75	83	83
